Test results taken from patent US20230181535A1, “UBIQUITIN-LIGASE INHIBITORS FOR THE TREATMENT OF CANCER” (FUNDACIÓN PROFESOR NOVOA SANTOS, priority 2020, published 2023).

How the values were obtained:
[1] = tested on: HCT116 colon cancer cells; assay: MTT cell viability assay, HCT116; assay type: cell-based, human; conditions: concentrations tested in the previous assays
Protocol: (§1) For cytotoxicity assays, 1×10^4 cells were seeded per well into a 96-well plate. After 24 h cells were treated with the indicated inhibitors for 72 h and a MTT colorimetric cell viability assay was performed following manufacturer's instructions (Sigma Aldrich, St Louis, Mo.). Absorbance was measured at 570 and 630 nm using a Multiskan Plus Reader (Nanoquant Infinite M200 Tecan Trading AG, Switzerland). Dose-response curves were designed with Graph Pad Prism Software and the half-maximal inhibitory concentration (IC50) values were calculated. Represented data are the mean±SEM of at least three independent experiments with six replicates per condition.

HT29 cell line = assay: Invasion assay, HT29 (dose/response); assay type: cell-based, human; conditions: for cell invasion: treated 48 h, 1 μM, 10 μM, 50 μM, vs DMSO
Protocol: [The procedure below names another cell line; the source lists this cell line under the same test.] For invasion assays, cells were treated with Hakin-1 or DMSO as vehicle for 48 h using 1% FBS during the last 24 hours. 3×10^5 MDCK, MDCK-Hakai or LoVo cells were seeded in a cell invasion chamber (Cell invasion assay kit, Chemicon International) containing medium with 2% FBS. After 72 hours for MDCK and MDCK-Hakai Invasive and 16 h for LoVo cells, invasive cells invaded that reach the lower chamber containing 30% FBS were fixed and stained with crystal violet (Sigma Aldrich, St Louis, Mo.) following the manufacturer's specifications. For migration assays, HT29 cells were cultured with Hakin-1 or DMSO as vehicle for 48 h, using medium without serum the last 24 h. In the cell migration chamber were seeded 3×10^5 HT29 cells (Cell migration kit, Millipore, Bedford, Mass.) containing medium without serum. After 16 h, migrated cells in the lower chamber containing serum with 30% FBS were stained with crystal violet and counted following the manufacturer's specifications. For both invasion and migration assays cells were counted in five fields photographed with an Olympus microscope using a 20× objective, experiments were performed in triplicates for each condition and the assays were repeated at least three times. Results are expressed as mean±SD.

[2] = tested on: non-cancerous HEK293T cells; assay: MTT cell viability assay, HEK293T; assay type: cell-based, human; conditions: concentrations tested in the previous assays
Protocol: as §1

[3] = tested on: HT-29 human colorectal adenocarcinoma cell line; assay: E-cadherin at cell-cell contacts, Vala SIM / CyteSeer Cell-Cell Junction Algorithm, HT-29; assay type: cell-based; conditions: for E-cadherin levels at cell-cell contacts: 48 hours, vs DMSO vehicle control; for increase of E-cadherin expression levels: 24 hours
Protocol: (§2) For western blot analysis, cells were treated with the indicated inhibitors for 48 h and the whole cell extracts were obtained as described previously. Twenty micrograms of lysates were resolved on a 10% polyacrilamide SDS-PAGE followed by western blot analysis performed as previously described. For immunofluorescence assays cells were grown for 24 h on glass coverslips and treated with the indicated inhibitors for 48 h. Cells were fixed with 4% PFA for 15 min, permeabilized with 0.5% […] and incubated with E-cadherin antibody for 2 h. Coverslips were incubated with fluorescein-tagged secondary antibody (Dakopatts, Sweden) for […]. Finally coverslips were mounted with ProLong Gold antifade reagent (LifeTech, UK) and images were taken in epifluorescence microscope (Olympus) using 40× objective. Immunofluorescence of E-cadherin and DNA content analysis for FIGS. 22-23 were performed culturing of HT-29 human colorectal adenocarcinoma cell line in 384-well plates with densities of 3,000 cells per well in a total volume of 25 μl. After the completion of the staining, four images (2×2 array) of each well were taken with Vala Sciences' SIM™ with a 20× objective. Each image was acquired as a SIM Synthetic Focus with a z-stack range of 6 μm with 1 μm steps. The SIM Synthetic Focus feature will compile a “best focus” images from multiple images. One set of SIM Synthetic Focus images were taken in the DAPI channel for Hoechst 33342 staining, and another set of images were taken in the FITC channel for anti-E-cadherin-AlexaFluor488 labeling and analysed by Structured Illumination Microscopy (SIM™) platform to image the cells and Vala's CyteSeer® Cell-Cell Junction Algorithm to quantify the degree of expression and intracellular location of E-cadherin Vala's CyteSeer® Software can also measure relative DNA content by analyzing Total Integrated Intensity (TII) of the Nuclear Image (Ni) on the Nuclear Mask (Nm). This analysis was performed by Vala Science. Twenty compounds from were assayed in a “blinded” manner, at 2 test concentrations in 6 replicate wells for first assay and 3 replicate for second assay.

HT-29 cells [4] = assay: Cell cycle (DNA content) analysis with CyteSeer, HT-29; assay type: cell-based, human
Protocol: as §2

[5] = molecular target: T1, E3 ubiquitin-ligase Hakai (Mus musculus, UniProt Q9JIY2); assay: In vivo Hakai-dependent ubiquitination assay in 293T cells; assay type: cell-based; conditions: vs DMSO; for Hakai-induced ubiquitination: HEK293T cells transfected with Hakai and ubiquitin
T1 construct: expressed in transfected cells; host or cells: HEK293T
T1 sequence (Q9JIY2 1-491): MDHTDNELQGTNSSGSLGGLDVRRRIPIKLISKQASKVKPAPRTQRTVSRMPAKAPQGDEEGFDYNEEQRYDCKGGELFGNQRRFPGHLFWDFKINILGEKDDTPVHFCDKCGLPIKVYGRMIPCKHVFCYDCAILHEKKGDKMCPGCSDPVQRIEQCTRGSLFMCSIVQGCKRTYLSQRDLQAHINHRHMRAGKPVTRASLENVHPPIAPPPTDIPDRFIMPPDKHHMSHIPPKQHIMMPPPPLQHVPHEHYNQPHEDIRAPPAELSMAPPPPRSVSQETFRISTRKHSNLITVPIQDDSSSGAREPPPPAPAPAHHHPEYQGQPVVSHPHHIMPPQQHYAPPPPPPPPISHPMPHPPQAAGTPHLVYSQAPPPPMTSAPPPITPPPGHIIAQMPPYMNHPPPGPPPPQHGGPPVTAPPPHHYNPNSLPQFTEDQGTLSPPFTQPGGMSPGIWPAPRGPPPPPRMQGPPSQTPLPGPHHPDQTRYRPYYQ
Protocol: For ubiquitination assays, 750.000 HEK293T cells were seeded in 6-well cell culture plates and after 24 h were transfected with 0.25 μg Src, 0.75 μg Flag-Hakai, and 0.5 μg HA-ubiquitin with Lipofectamin 2000 (Invitrogen, UK). Six hours after transfection cells were treated with indicated concentrations of Hakin-1, Hakin-5 or the rest of the compounds tested for 36 h. Whole cell extracts were obtained in lysis buffer (20 mM Tris-HCl pH 7.5, 150 mM NaCl and 1% Triton X-100) containing 10 μg/ml leupeptin, 10 μg/ml aprotinin and 1 mM phenylmethanesulphonyl fluoride (PMSF), supplemented with 10 mM N-ethylmaleimide. Cells were harvested and subjected to western blotting using anti-HA antibody to detect ubiquitination.

[6] = tested on: Colon cancer HCT116 cells; assay: BrdU proliferation assay, HCT116; assay type: cell-based, human; conditions: 48 h
Protocol: (§3) For BrdU assays, 1×10^4 of indicated cells were plated per well into a 96-well plate. After 24 h, cells were treated with the indicated inhibitors for 48 h. Three independent experiments were plated with six replicates per each condition. Cells were treated with […] BrdU for 2 h. BrdU incorporation into newly synthesized DNA was measured using a cell proliferation colorimetric immunoassay kit according to the manufacturer's instructions (Roche, Switzerland). Results are expressed as mean±S.D. Results are represented as percentage of positive cells (mean±S.D) of three independent experiments.

HT-29 cells [7] = assay: Immunofluorescence of E-cadherin, HT-29; assay type: cell-based, human; conditions: for E-cadherin expression at cell-cell contacts (immunofluorescence, Image J): 48 hours, 5-100 μM, vs DMSO vehicle control
Protocol: as §2

epithelial MDCK cells = assay: Phase-contrast cell phenotype, MDCK; assay type: cell-based
Protocol: (§4) MDCK, HEK293T, HepG2, MCF7 and ACHN cells were cultured in Dulbecco's Modified Eagles Medium (DMEM). MDCK stably expressing Hakai cells (Hakai-MDCK) were previously reported and were growth in DMEM with G418 (800 μg/ml). […] LoVo and PC-3 cells were cultured in F-12K Medium (Kaighn's Modification of Ham's F-12 Medium) and HT-29 and HCT116 cells in McCoy's 5a Medium Modified. 5637 cells were cultured in RPMI medium. All culture media were supplemented with 1% penicillin/streptomycin and 10% of heat-inactivated fetal bovine serum (FBS) at 37° C. in a humidified incubator with 5% CO2. Cells were monthly tested for mycoplasma contamination and used only for 1-3 months after defrosted. LoVo and HT29 cells were authenticated with the StemElite ID system (Promega). For phase-contrast images, culture cells were photographed with a Nikon Eclipse-TI microscope.

HT29 cells = assay: BrdU proliferation assay, HT29; assay type: cell-based, human; conditions: 48 h
Protocol: as §3

HT-29 cells [8] = assay: Western blotting of EMT markers, HT-29; assay type: cell-based, human; conditions: 48 h
Protocol: as §2

[9] = tested on: normal epithelial MDCK cell line; assay: MTT cell viability assay, MDCK; assay type: cell-based; conditions: compared with Hakai-MDCK
Protocol: as §1

[10] = tested on: Hakai-MDCK cell lines (clone 4 and clone 11); assay: MTT cell viability assay, Hakai-MDCK; assay type: cell-based; conditions: Hakai-MDCK clone 4 and clone 11, compared with MDCK
Protocol: as §1

HT-29 cells [11] = assay: Phase-contrast cell phenotype, HT-29; assay type: cell-based, human
Protocol: as §4

[12] = tested on: Hakai-transformed MDCK cells; assay: Phase-contrast cell phenotype, Hakai-MDCK; assay type: cell-based; conditions: Hakai-transformed MDCK cells (mesenchymal phenotype)
Protocol: as §4

LoVo cells [13] = assay: Phase-contrast cell phenotype, LoVo; assay type: cell-based
Protocol: as §4

LoVo cells [14] = assay: BrdU proliferation assay, LoVo; assay type: cell-based; conditions: 48 h
Protocol: as §3

How did the “cytotoxic effect (cell viability, MTT)” value [1] turn out when `O=C(O)c1ccc(-n2nnnc2SC(c2ccccc2)c2ccc(Cl)cc2)cc1` (stereo not shown) [Compound K1] was run?
The value was “no cytotoxic effect”.

What about the cell invasion (HT29 cell line) of the same compound?
Its cell invasion is “reduce cell invasion”.

What about the “cytotoxic effect (cell viability, MTT)” value [2] of the same compound?
The value was “no cytotoxic effect”.

And the “E-cadherin levels at cell-cell contacts” value ([3]; 100 μM)?
Its value is “significantly increased E-cadherin levels at cell-cell contacts”.

And the cell cycle (HT-29 cells [4]; 100 μM, 48 hours)?
The cell cycle was “arrested the cells in G0/G1 phase”.

What about the cell numbers (HT-29 cells [4]; 100 μM, 48 hours) of the same compound?
The cell numbers was “reduced the cell numbers”.

And the Hakai-induced ubiquitination [5]?
The Hakai-induced ubiquitination was “reduced ubiquitination at 20 μM and 100 μM”.

Which “E-cadherin levels at cell-cell contacts” value ([3]; 100 μM or 20 μM) does the source give for `Cc1ccc(NC(=O)CSc2nnnn2-c2cccc(C(=O)O)c2)cc1C` [Compound K2] here?
Its value is “Significant differences were also detected”.

What about the cell cycle (HT-29 cells [4]; 100 μM, 48 hours) of the same compound?
The cell cycle was “arrested the cells in G0/G1 phase”.

And the cell numbers (HT-29 cells [4]; 100 μM, 48 hours)?
The cell numbers was “reduced the cell numbers”.

With `Cc1ccc(CNC(=O)CSc2nc3sccc3c(=O)n2-c2ccc(C(=O)O)cc2)cc1` [Compound K8] as the compound, how does the “cytotoxic effect (cell viability, MTT)” value [1] read?
The value was “inhibitory response in cancer cells”.

What about the “cell proliferation (BrdU)” value [6] of the same compound?
Its value is “inhibit cell proliferation”.

And the IC50 (HT29 cell line; Homo sapiens, HT-29, treated 48 h, read-out: concentration at which 50% inhibition of invasion was achieved)?
Its IC50 is roughly 1000 nM.

And the cell invasion (HT29 cell line)?
Its cell invasion is “reduce cell invasion”.

And the “cytotoxic effect (cell viability, MTT)” value [2]?
Its value is “no effect was detected in non-tumour cells”.

And the “E-cadherin expression at cell-cell contacts (immunofluorescence, Image J)” value (HT-29 cells [7])?
The value was “increase E-cadherin levels at cell-cell contacts”.

And the Hakai-induced ubiquitination [5]?
The Hakai-induced ubiquitination was “reduce ubiquitination at 20 μM”.

With `O=C(O)c1ccc(-n2nnnc2SC2CCc3ccccc3NC2=O)cc1` (stereo not shown) [Compound K33] as the compound, how does the “E-cadherin expression at cell-cell contacts (immunofluorescence, Image J)” value (HT-29 cells [7]) read?
Its value is “increase E-cadherin levels at cell-cell contacts”.

How did the “cell phenotype by phase contrast” value (epithelial MDCK cells) turn out when `CC(/C=C/C(=O)O)=C\CC(O)/C(C)=C/CCC(C)C(C)O` (stereo not shown) [Hakin-5, (2E,4E,8E)-7,13-Dihydroxy-4,8,12-trimethyl-2,4,8-tetradecatrienoic acid, reference compound] was run?
The value was “no effect was observed”.

And the “cell proliferation (BrdU)” value (HT29 cells)?
The value was “no effect was seen”.

What about the “EMT markers expression (E-Cadherin, Cortactin, Hakai)” value (HT-29 cells [8]; HT29) of the same compound?
Its value is “does not affect the EMT markers expression”.

What about the “E-cadherin levels (western blotting)” value (HT-29 cells [8]; HT-29) of the same compound?
The value was “no effect by western-blotting or immunofluorescence was detected on E-cadherin protein levels”.

And the “sensitivity to treatment (cell viability, MTT)” value [9]?
Its value is “more resistant”.

What about the “sensitivity to treatment (cell viability, MTT)” value [10] of the same compound?
Its value is “more sensitive”.

And the “E-cadherin levels at cell-cell contacts (immunofluorescence)” value (HT-29 cells [7]; 48 h, vs DMSO)?
The value was “no effect by western-blotting or immunofluorescence was detected on E-cadherin protein levels”.

What about the “cell phenotype by phase contrast” value (HT-29 cells [11]) of the same compound?
Its value is “modestly induce an epithelial phenotype”.

And the “cell phenotype by phase contrast” value [12]?
Its value is “induction of an epithelial phenotype”.

And the “cell phenotype by phase contrast” value (LoVo cells [13])?
The value was “modestly induce an epithelial phenotype”.

What about the “cell proliferation (BrdU)” value (LoVo cells [14]) of the same compound?
The value was “no effect was seen”.

And the “ubiquitination mediated by Hakai” value ([5]; 293T cells transfected with Src, Flag-Hakai and HA-ubiquitin, western blotting anti-HA)?
The value was “no effect was detected on Hakai-mediated ubiquitination”.

With `COC(=O)Nc1nc2ccc(C(=O)c3cccs3)cc2[nH]1` [nocodazole] as the compound, how does the “increase of E-cadherin expression levels” value ([3]; 250 ng/ml) read?
The value was 32%.

What about the “increase of E-cadherin expression levels” value ([3]; 500 ng/ml) of the same compound?
Its value is 42%.

And the “increase of E-cadherin expression levels” value ([3]; 1000 ng/ml)?
Its value is 47%.

And the cell cycle (HT-29 cells [4]; 24 hours, vs DMSO vehicle control)?
The cell cycle was “dramatic shift towards G2/M phase arrest”.
